Measurements taken from article PMC7774954, “Interactomic affinity profiling by holdup assay: Acetylation and distal residues impact the PDZome-binding specificity of PTEN phosphatase” (PLoS ONE, 2020).
pKd: −log10 of the molar value. *1 amine or outer side, *2 acyl side, *3 side chain or, on linkers, in order; H or OH if unused. Where a SMILES comes first, the peptide text is derived from it. The star is where a group is joined. X1 = O=C(CCCC[C@@H]1SC[C@@H]2NC(=O)N[C@@H]21)NCCCOCCOCCOCCCN*; Suc = O=C(CCC(=O)[*:2])[*:1]

Key:
GRIP2-4 = experiment: Holdup assay, GRIP2-4; format: binding, human
GRIP1-6 = experiment: Holdup assay, GRIP1-6; format: binding, human
DLG4 PDZ 1 = biological target: T1, DLG4 PDZ 1 (Homo sapiens, UniProt P78352); experiment: Holdup assay, DLG4-1; format: binding; conditions: for BI: DLG4-1
T1 construct: made in house; host or cells: E. coli
Experimental: (§1) The holdup assay was performed on a Tecan freedom Evo200 robot with 384-well plates in singlicate for the three 11-mer PTEN variants and the 13-mer PTEN peptide as described in [31, 32]. Briefly, prior to interaction assay, 2.5 μL of streptavidin resin was saturated in each well with 20 μL of biotinylated PBM peptides (42 μM) and then washed twice with an excess of free biotin, while the reference resin was incubated only with biotin. Right before the holdup experiment, the PDZ library was spiked with an internal standard of lysozyme. Then, the biotin- or PBM-saturated resin was incubated, each in a distinct well of a 384-well plate, with complete cell lysates diluted so that the concentration of the tag-PDZ present in the crude extract is adjusted at 4 μM. After a sufficient time to reach complex equilibrium (15 min.), a fast and mild filtration step is performed and the tag-PDZ concentrations were measured by capillary electrophoresis instrument (LabChip GXII, PerkinElmer, Massachusets, USA). Standard markers were used to convert migration time into molecular weight on the LabChip software and inappropriate molecular weight markers were corrected or excluded.
(§2) For filtered data, the BI was extracted with the following equation (Eq 1) that estimates the depleted fraction after superimposition of the sample and reference electropherograms: BI=Iref−Ilig/Iref (1) where Iref and Ilig are the intensities of the tag-PDZ peaks measured, for each PDZ domain/PBM peptide interaction pair, in the biotin reference and the PBM electropherograms, respectively.
(§3) BIs were transformed into dissociation constants (KD) using the following formula: KD=([PDZtot]−BI·[PDZtot])·([PBMtot]−BI·[PDZtot])/BI·[PDZtot] (2) where [PDZtot] and [PBMtot] correspond to the total concentrations of the PDZ domain (usually around 4 μM) and the PBM peptide used during the assay. Since the PBMtot concentration in the resin during the holdup assay parameter may differ from one peptide to another and remains unknown, it is impossible to directly convert BI values into KD constants. We systematically determined the KD constants for a subset of PDZ/PBM pairs by competitive FP. […] For each PBM, the average peptide concentration was calculated after outlier rejection based on the absolute distances from the median as compared to three times the standard deviation (3σ rule), with never more than 2 values rejected.

LDB3-1 = experiment: Holdup assay, LDB3-1; format: binding, human
MAGIX-1 = experiment: Holdup assay, MAGIX-1; format: binding, human
GRIP1-4 = experiment: Holdup assay, GRIP1-4; format: binding, human
CNKSR3-1 = experiment: Holdup assay, CNKSR3-1; format: binding, human
DLG5-4 = experiment: Holdup assay, DLG5-4; format: binding, human
GRIP2-7 = experiment: Holdup assay, GRIP2-7; format: binding, human
INADL-5 = experiment: Holdup assay, INADL-5; format: binding, human
LNX2-2 = biological target: T2, LNX2-2 (Homo sapiens, UniProt Q8N448); experiment: Holdup assay, LNX2-2; format: binding
T2 sequence (Q8N448 339-422): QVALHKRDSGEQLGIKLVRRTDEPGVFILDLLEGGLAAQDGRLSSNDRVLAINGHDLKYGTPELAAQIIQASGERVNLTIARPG

MAGI3 PDZ 2 = biological target: T3, MAGI3 PDZ 2 (Homo sapiens, UniProt Q5TCQ9); experiment: Holdup assay, MAGI3-2; format: binding; conditions: for BI: MAGI3-2
T3 construct: made in house; host or cells: E. coli
Experimental: as §1, §2, §3

SDCBP PDZ 1 = biological target: T4, SDCBP PDZ 1 (Homo sapiens, UniProt O00560); experiment: Holdup assay, SDCBP-1; format: binding; conditions: PDZ domain SDCBP-1
T4 construct: made in house; host or cells: E. coli
T4 sequence (O00560 114-193 limits assumed): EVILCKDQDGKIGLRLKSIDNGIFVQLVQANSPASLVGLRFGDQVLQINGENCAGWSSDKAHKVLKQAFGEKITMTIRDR
Experimental: as §1, §2, §3

DFNB31-1 = biological target: T5, DFNB31-1 (Homo sapiens, UniProt Q9P202); experiment: Holdup assay, DFNB31-1; format: binding
T5 sequence (Q9P202 140-223): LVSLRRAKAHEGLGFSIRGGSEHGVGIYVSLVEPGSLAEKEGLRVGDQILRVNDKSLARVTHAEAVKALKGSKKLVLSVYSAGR

INADL-3 = experiment: Holdup assay, INADL-3; format: binding, human
LAP2-1 = LAP2-1 (Homo sapiens, UniProt Q96RT1); experiment: Holdup assay, LAP2-1; format: binding
FRMPD3-1 = experiment: Holdup assay, FRMPD3-1; format: binding, human
PTPN13 PDZ 2 = biological target: T6, PTPN13 PDZ 2 (Homo sapiens, UniProt Q12923); experiment: Holdup assay, PTPN13-2; format: binding; conditions: for BI: PDZ domain PTPN13-2
T6 construct: made in house; host or cells: E. coli
T6 sequence (Q12923 1368-1452 limits assumed): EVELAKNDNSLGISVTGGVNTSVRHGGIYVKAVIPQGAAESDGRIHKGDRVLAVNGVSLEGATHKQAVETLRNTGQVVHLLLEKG
Experimental: as §1, §2, §3

MAGI2-1 = experiment: Holdup assay, MAGI2-1; format: binding, human
CARD14-1 = experiment: Holdup assay, CARD14-1; format: binding, human
INADL-9 = experiment: Holdup assay, INADL-9; format: binding, human
MAST4-1 = experiment: Holdup assay, MAST4-1; format: binding, human
HTRA1-1 = biological target: T7, HTRA1-1 (Homo sapiens, UniProt Q92743); experiment: Holdup assay, HTRA1-1; format: binding; conditions: for BI: HTRA1-1
T7 construct: His-MBP or His-TRX (N); made in house; host or cells: E. coli
Experimental: as §1, §2

DVL2-1 = experiment: Holdup assay, DVL2-1; format: binding, human

T3 sequence (Q5TCQ9 410-492 limits assumed): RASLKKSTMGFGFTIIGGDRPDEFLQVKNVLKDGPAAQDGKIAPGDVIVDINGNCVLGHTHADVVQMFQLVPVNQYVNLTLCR
T1 sequence (P78352 65-151): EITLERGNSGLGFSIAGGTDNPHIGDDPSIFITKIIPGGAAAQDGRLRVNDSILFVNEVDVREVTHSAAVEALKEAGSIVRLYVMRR
T7 sequence (Q92743 365-467 limits assumed): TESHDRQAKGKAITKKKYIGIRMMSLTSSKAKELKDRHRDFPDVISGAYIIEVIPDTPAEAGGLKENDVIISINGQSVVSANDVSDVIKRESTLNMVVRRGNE
Sequence of LAP2-1 (Q96RT1 1321-1410): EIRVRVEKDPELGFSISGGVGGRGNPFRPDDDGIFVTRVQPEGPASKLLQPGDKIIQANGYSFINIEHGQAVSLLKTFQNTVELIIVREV

CC[C@H](C)[C@H](NC(=O)[C@H](CCC(N)=O)NC(=O)[C@@H](NC(=O)[C@H](Cc1c[nH]cn1)NC(=O)[C@H](CCC(N)=O)NC(=O)[C@H](CC(=O)O)NC(=O)[C@H](CCC(=O)O)NC(=O)[C@H](CC(=O)O)NC(=O)CCC(=O)NCCCOCCOCCOCCCNC(=O)CCCC[C@@H]1SC[C@@H]2NC(=O)N[C@@H]21)[C@@H](C)O)C(=O)N[C@H](C(=O)N[C@@H](CCCNC(=N)N)C(=O)N[C@H](C(=O)O)C(C)C)[C@@H](C)O [PTEN_KR] ({X1-Suc}-DEDQHTQITRV-OH)
BI (GRIP2-4): -0.019
LogKD (GRIP2-4): 3.655
BI (GRIP1-6): 0.038
LogKD (GRIP1-6): 3.655
pKd (DLG4 PDZ 1): 4.09
BI (DLG4 PDZ 1): 0.229
BI (LDB3-1): -0.05
LogKD (LDB3-1): 3.655
BI (MAGIX-1): 0.018
LogKD (MAGIX-1): 3.655
BI (GRIP1-4): -0.042
LogKD (GRIP1-4): 3.655
BI (CNKSR3-1): -0.031
LogKD (CNKSR3-1): 3.655
BI (DLG5-4): -0.107
LogKD (DLG5-4): 3.655
BI (GRIP2-7): -0.066
LogKD (GRIP2-7): 3.655
BI (INADL-5): -0.046
LogKD (INADL-5): 3.655
BI (LNX2-2): 0.256
pKd (LNX2-2): 4.16
BI (MAGI3 PDZ 2): 0.445
BI (SDCBP PDZ 1): -0.006
BI (DFNB31-1): 0.118
BI (INADL-3): -0.042
LogKD (INADL-3): 3.655
BI (LAP2-1): 0.205
pKd (LAP2-1): 4.03
BI (FRMPD3-1): -0.082
LogKD (FRMPD3-1): 3.655
BI (PTPN13 PDZ 2): 0.138
BI (MAGI2-1): -0.074
LogKD (MAGI2-1): 3.655
BI (CARD14-1): -0.077
LogKD (CARD14-1): 3.655
BI (INADL-9): 0.068
LogKD (INADL-9): 3.655
BI (MAST4-1): -0.027
LogKD (MAST4-1): 3.655
pKd (HTRA1-1): 4.39
BI (HTRA1-1): 0.368
BI (DVL2-1): -0.027
LogKD (DVL2-1): 3.655

CC[C@H](C)[C@H](NC(=O)[C@H](CCC(N)=O)NC(=O)[C@@H](NC(=O)[C@H](Cc1c[nH]cn1)NC(=O)[C@H](CCC(N)=O)NC(=O)[C@H](CC(=O)O)NC(=O)[C@H](CCC(=O)O)NC(=O)[C@H](CC(=O)O)NC(=O)[C@H](Cc1ccccc1)NC(=O)[C@@H]1CCCN1C(=O)CCC(=O)NCCCOCCOCCOCCCNC(=O)CCCC[C@@H]1SC[C@@H]2NC(=O)N[C@@H]21)[C@@H](C)O)C(=O)N[C@H](C(=O)N[C@@H](CCCCN)C(=O)N[C@H](C(=O)O)C(C)C)[C@@H](C)O [PTEN_13] ({X1-Suc}-PFDEDQHTQITKV-OH)
BI (GRIP2-4): -0.022
BI (GRIP1-6): 0.004
BI (DLG4 PDZ 1): 0.077
BI (LDB3-1): -0.021
BI (MAGIX-1): 0.049
BI (GRIP1-4): -0.039
BI (CNKSR3-1): 0.002
BI (DLG5-4): -0.028
BI (GRIP2-7): -0.039
BI (INADL-5): -0.039
BI (LNX2-2): 0.136
pKd (MAGI3 PDZ 2): 4.66
BI (MAGI3 PDZ 2): 0.414
BI (SDCBP PDZ 1): 0.009
BI (DFNB31-1): 0.145
BI (INADL-3): 0.031
BI (LAP2-1): 0.172
BI (FRMPD3-1): -0.096
pKd (PTPN13 PDZ 2): 4.79
BI (PTPN13 PDZ 2): 0.482
BI (MAGI2-1): -0.114
BI (CARD14-1): -0.001
BI (INADL-9): -0.062
BI (MAST4-1): 0.058
pKd (HTRA1-1): 4.28
BI (HTRA1-1): 0.235
BI (DVL2-1): -0.026
